Experimental findings from patent US10246469B2, “Biaryl kinase inhibitors” (BRISTOL-MYERS SQUIBB COMPANY, priority 2015, dated 2019) are described below.

The target of the test is T1, GST-Xa-hAAK1 (Homo sapiens, UniProt Q2M2I8).
T1 construct: GST (N); Factor Xa cleavage site (Xa) (internal); made in house
As to the kind of experiment: AAK1 Kinase Assay. It counts as biochemical. Particulars: bacterially expressed GST-Xa-hAAK1 3.5 nM; ATP 22 μM; fluoresceinated peptide 1.5 μM; 3 hours at room temperature; Caliper LabChip 3000. How it is done:
The assays were performed in U-bottom 384-well plates. The final assay volume was 30 μl prepared from 15 μl additions of enzyme and substrates (fluoresceinated peptide (5-FAM)-Aha-[…]-NH2 and ATP) and test compounds in assay buffer (10 mM Tris-HCL pH 7.4, 10 mM MgCl2, 0.01% Tween-20 and 1.0 mM DTT). The reactions were initiated by the combination of bacterially expressed, GST-Xa-hAAK1 with substrates and test compounds. The reactions were incubated at room temperature for 3 hours and terminated by adding 60 μl of 35 mM EDTA buffer to each sample. The reactions were analyzed on the Caliper LabChip 3000 (Caliper, Hopkinton, Mass.) by electrophoretic separation of the fluorescent substrate and phosphorylated product. […] The final concentration of reagents in the assays are ATP, 22 μM; (5-FAM)-Aha-[…]-NH2, 1.5 μM; GST-Xa-hAAK1, 3.5 nM; and DMSO, 1.6%. […] Compounds were dissolved at 10 mM in dimethylsulfoxide (DMSO) and evaluated at eleven concentrations. IC50 values were derived by non-linear regression analysis.

Structures are written as SMILES.

T1 sequence (Q2M2I8 whole entry): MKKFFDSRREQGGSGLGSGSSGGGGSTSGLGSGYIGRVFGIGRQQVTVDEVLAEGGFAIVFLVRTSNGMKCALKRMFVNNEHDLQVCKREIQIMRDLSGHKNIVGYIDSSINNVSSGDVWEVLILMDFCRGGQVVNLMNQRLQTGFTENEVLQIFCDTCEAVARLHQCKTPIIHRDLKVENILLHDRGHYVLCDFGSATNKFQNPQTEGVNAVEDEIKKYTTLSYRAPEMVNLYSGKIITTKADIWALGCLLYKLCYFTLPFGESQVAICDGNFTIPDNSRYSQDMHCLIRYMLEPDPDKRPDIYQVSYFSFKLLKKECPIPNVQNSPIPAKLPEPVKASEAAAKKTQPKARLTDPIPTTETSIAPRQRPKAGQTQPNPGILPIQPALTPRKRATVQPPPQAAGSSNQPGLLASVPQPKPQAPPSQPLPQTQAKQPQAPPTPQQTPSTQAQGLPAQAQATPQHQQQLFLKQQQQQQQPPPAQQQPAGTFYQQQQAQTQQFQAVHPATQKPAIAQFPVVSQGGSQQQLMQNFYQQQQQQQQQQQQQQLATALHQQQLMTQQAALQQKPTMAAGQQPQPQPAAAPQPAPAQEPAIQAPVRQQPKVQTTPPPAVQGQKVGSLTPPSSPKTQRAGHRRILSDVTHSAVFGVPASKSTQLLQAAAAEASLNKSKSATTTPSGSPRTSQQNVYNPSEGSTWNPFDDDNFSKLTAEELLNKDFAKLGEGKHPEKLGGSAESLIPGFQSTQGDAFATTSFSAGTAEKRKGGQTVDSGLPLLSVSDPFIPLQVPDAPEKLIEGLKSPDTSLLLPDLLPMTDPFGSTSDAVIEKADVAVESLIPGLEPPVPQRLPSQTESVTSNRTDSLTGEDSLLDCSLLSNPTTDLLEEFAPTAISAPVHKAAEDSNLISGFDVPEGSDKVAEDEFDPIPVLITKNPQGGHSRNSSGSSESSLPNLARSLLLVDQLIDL

As to `CC(C)C[C@](C)(N)COc1ccc(-c2ccnc(Nc3nccs3)n2)cc1C(F)(F)F` [Example 371, (S)—N-(4-(4-((2-amino-2,4-dimethylpentyl)oxy)-3-(trifluoromethyl)phenyl)pyrimidin-2-yl)thiazol-2-amine], the IC50 turned out to be 0.2 nM. Then `Cc1csc(Nc2nccc(-c3ccc(OC[C@@](C)(N)CC(C)C)c(C(F)(F)F)c3)n2)n1` [Example 376, (S)—N-(4-(4-((2-amino-2,4-dimethylpentyl)oxy)-3-(trifluoromethyl)phenyl)pyrimidin-2-yl)-4-methylthiazol-2-amine], with 0.8 nM. As for `CC(C)C[C@](C)(N)COc1ccc(-c2ccnc(NC3CCCC3)n2)cc1C(F)(F)F` [Example 377, (S)-4-(4-((2-amino-2,4-dimethylpentyl)oxy)-3-(trifluoromethyl)phenyl)-N-cyclopentylpyrimidin-2-amine], the IC50 came out at 7.4 nM. For the molecule `Cc1csc(Nc2nccc(-c3ccc(OC[C@@](C)(N)CC(C)C)c(C#N)c3)n2)n1` [Example 380, (S)-2-((2-amino-2,4-dimethylpentyl)oxy)-5-(2-((4-methylthiazol-2-yl)amino)pyrimidin-4-yl)benzonitrile], the half-inhibitory concentration (IC50) amounted to 1 nM.

For the molecule `Cc1csc(Nc2nccc(-c3ccc(OC[C@@](C)(N)CC(C)C)c(C)c3)n2)n1` [Example 381, (S)—N-(4-(4-((2-amino-2,4-dimethylpentyl)oxy)-3-methylphenyl)pyrimidin-2-yl)-4-methylthiazol-2-amine], the IC50 stood at 1.5 nM.

In the case of `CC(C)C[C@](C)(N)COc1ccc(-c2ccnc(NC(=O)C3CC3)c2)cc1C(F)(F)F` [Example 389, (S)—N-(4-(4-((2-amino-2,4-dimethylpentyl)oxy)-3-(trifluoromethyl)phenyl)pyridin-2-yl)cyclopropanecarboxamide], the IC50 is 0.3 nM. `CC(C)C[C@](C)(N)COc1ccc(-c2ccnc(NC(=O)C3CCC3)c2)cc1C(F)(F)F` [Example 390, (S)—N-(4-(4-((2-amino-2,4-dimethylpentyl)oxy)-3-(trifluoromethyl)phenyl)pyridin-2-yl)cyclobutanecarboxamide]: the concentration for half-maximal inhibition (IC50) was 0.5 nM. For the molecule `CC(C)C[C@](C)(N)COc1ccc(-c2ccnc(NC(=O)C3CCCC3)c2)cc1C(F)(F)F` [Example 391, (S)—N-(4-(4-((2-amino-2,4-dimethylpentyl)oxy)-3-(trifluoromethyl)phenyl)pyridin-2-yl)cyclopentanecarboxamide], the half-inhibitory concentration (IC50) was determined as 0.5 nM.

`CC(C)C[C@](C)(N)COc1ccc(-c2ccnc(NC(=O)CC3CCCC3)c2)cc1C(F)(F)F` [Example 392, (S)—N-(4-(4-((2-amino-2,4-dimethylpentyl)oxy)-3-(trifluoromethyl)phenyl)pyridin-2-yl)-2-cyclopentylacetamide]: the IC50 was determined as 0.7 nM.

Turning to `CC(C)C[C@](C)(N)COc1ccc(-c2ccnc(NC(=O)CCC3CCCC3)c2)cc1C(F)(F)F` [Example 393, (S)—N-(4-(4-((2-amino-2,4-dimethylpentyl)oxy)-3-(trifluoromethyl)phenyl)pyridin-2-yl)-3-cyclopentylpropanamide], the IC50 was found to be 7.3 nM. Consider `CC(C)C[C@](C)(N)COc1ccc(-c2ccnc(NC(=O)CC3CCCCC3)c2)cc1C(F)(F)F` [Example 394, (S)—N-(4-(4-((2-amino-2,4-dimethylpentyl)oxy)-3-(trifluoromethyl)phenyl)pyridin-2-yl)-2-cyclohexylacetamide], for which the IC50 stood at 2 nM. Then `CC(C)C[C@](C)(N)COc1ccc(-c2ccnc(NC(=O)C3CCCO3)c2)cc1C(F)(F)F` (stereo partly drawn) [Example 398, N-(4-(4-(((S)-2-amino-2,4-dimethylpentyl)oxy)-3-(trifluoromethyl)phenyl)pyridin-2-yl)tetrahydrofuran-2-carboxamide], with 1 nM.

As for `CC(C)C[C@](C)(N)COc1ccc(-c2ccnc(NC(=O)CC3CCCCCC3)c2)cc1C(F)(F)F` [Example 399, (S)—N-(4-(4-((2-amino-2,4-dimethylpentyl)oxy)-3-(trifluoromethyl)phenyl)pyridin-2-yl)-2-cycloheptylacetamide], the IC50 turned out to be 5.9 nM. Then `CC(C)C[C@](C)(N)COc1ccc(-c2ccnc(NC(=O)c3ccco3)c2)cc1C(F)(F)F` [Example 400, (S)—N-(4-(4-((2-amino-2,4-dimethylpentyl)oxy)-3-(trifluoromethyl)phenyl)pyridin-2-yl)furan-2-carboxamide], with 0.3 nM; and `CC(C)C[C@](C)(N)COc1ccc(-c2ccnc(NC(=O)c3ccc(Br)o3)c2)cc1C(F)(F)F` [Example 401, (S)—N-(4-(4-((2-amino-2,4-dimethylpentyl)oxy)-3-(trifluoromethyl)phenyl)pyridin-2-yl)-5-bromofuran-2-carboxamide], with 0.6 nM; and `CC(=O)NCC(=O)Nc1cc(-c2ccc(OC[C@@](C)(N)CC(C)C)c(C(F)(F)F)c2)ccn1` [Example 402, (S)-2-acetamido-N-(4-(4-((2-amino-2,4-dimethylpentyl)oxy)-3-(trifluoromethyl)phenyl)pyridin-2-yl)acetamide], with 0.5 nM. Turning to `CC(C)C[C@](C)(N)COc1ccc(-c2ccnc(NC(=O)c3cccs3)c2)cc1C(F)(F)F` [Example 403, (S)—N-(4-(4-((2-amino-2,4-dimethylpentyl)oxy)-3-(trifluoromethyl)phenyl)pyridin-2-yl)thiophene-2-carboxamide], the IC50 turned out to be 0.5 nM. Turning to `CC(C)C[C@](C)(N)COc1ccc(-c2ccnc(NC(=O)c3cnccn3)c2)cc1C(F)(F)F` [Example 404, (S)—N-(4-(4-((2-amino-2,4-dimethylpentyl)oxy)-3-(trifluoromethyl)phenyl)pyridin-2-yl)pyrazine-2-carboxamide], the concentration for half-maximal inhibition (IC50) is 0.7 nM.

Consider `Cc1ncccc1C(=O)Nc1cc(-c2ccc(OC[C@@](C)(N)CC(C)C)c(C(F)(F)F)c2)ccn1` [Example 405, (S)—N-(4-(4-((2-amino-2,4-dimethylpentyl)oxy)-3-(trifluoromethyl)phenyl)pyridin-2-yl)-2-methylnicotinamide], for which the IC50 came to 2 nM.

Take `CC(C)C[C@](C)(N)COc1ccc(-c2ccnc(NC(=O)c3cnn[nH]3)c2)cc1C(F)(F)F` [Example 406, (S)—N-(4-(4-((2-amino-2,4-dimethylpentyl)oxy)-3-(trifluoromethyl)phenyl)pyridin-2-yl)-1H-1,2,3-triazole-5-carboxamide]: the half-maximal inhibitory concentration (IC50) amounted to 0.3 nM. `CC(C)C[C@](C)(N)COc1ccc(-c2ccnc(NC(=O)C3=NNC(=O)CC3)c2)cc1C(F)(F)F` [Example 407, (S)—N-(4-(4-((2-amino-2,4-dimethylpentyl)oxy)-3-(trifluoromethyl)phenyl)pyridin-2-yl)-6-oxo-1,4,5,6-tetrahydropyridazine-3-carboxamide]: the IC50 was 0.8 nM.

Consider `Cc1cc(C(=O)Nc2cc(-c3ccc(OC[C@@](C)(N)CC(C)C)c(C(F)(F)F)c3)ccn2)no1` [Example 408, (S)—N-(4-(4-((2-amino-2,4-dimethylpentyl)oxy)-3-(trifluoromethyl)phenyl)pyridin-2-yl)-5-methylisoxazole-3-carboxamide], for which the IC50 was found to be 0.5 nM.

Consider `CC(C)C[C@](C)(N)COc1ccc(-c2ccnc(NC(=O)c3cc(C(C)C)[nH]n3)c2)cc1C(F)(F)F` [Example 409, (S)—N-(4-(4-((2-amino-2,4-dimethylpentyl)oxy)-3-(trifluoromethyl)phenyl)pyridin-2-yl)-5-isopropyl-1H-pyrazole-3-carboxamide], for which the IC50 worked out at 0.7 nM. Consider `CC(C)C[C@](C)(N)COc1ccc(-c2ccnc(NCc3cccnc3)c2)cc1C(F)(F)F` [Example 410, (S)-4-(4-((2-amino-2,4-dimethylpentyl)oxy)-3-(trifluoromethyl)phenyl)-N-(pyridin-3-ylmethyl)pyridin-2-amine], for which the half-inhibitory concentration (IC50) worked out at 3.6 nM. For `CC(C)C[C@](C)(N)COc1ccc(-c2ccnc(NCc3ccco3)c2)cc1C(F)(F)F` [Example 411, (S)-4-(4-((2-amino-2,4-dimethylpentyl)oxy)-3-(trifluoromethyl)phenyl)-N-(furan-2-ylmethyl)pyridin-2-amine], the concentration for half-maximal inhibition (IC50) came out at 1.1 nM. Then `CC(C)C[C@](C)(N)COc1ccc(-c2ccnc(Nc3ccc4c(c3)OCO4)c2)cc1C(F)(F)F` [Example 412, (S)-4-(4-((2-amino-2,4-dimethylpentyl)oxy)-3-(trifluoromethyl)phenyl)-N-(benzo[d][1,3]dioxol-5-yl) pyridin-2-amine], with 6.4 nM; and `CC(C)C[C@](C)(N)COc1ccc(-c2ccnc3c2C(=O)N(C)C3)cc1F` [Example 413, (S)-4-(4-((2-amino-2,4-dimethylpentyl)oxy)-3-fluorophenyl)-6-methyl-6,7-dihydro-5H-pyrrolo [3,4-b]pyridin-5-one], with 765 nM.

`CC(C)C[C@](C)(N)COc1ccc(-c2ccnc3c2C(=O)N(C)C3)cc1C#N` [Example 414, (S)-2-((2-amino-2,4-dimethylpentyl)oxy)-5-(6-methyl-5-oxo-6,7-dihydro-5H-pyrrolo[3,4-b]pyridin-4-yl)benzonitrile]: the IC50 was determined as 47 nM. Consider `CC(C)C[C@](C)(N)COc1ccc(-c2ccnc3c2C(=O)NC3)cc1C#N` [Example 415, (S)-2-((2-amino-2,4-dimethylpentyl)oxy)-5-(5-oxo-6,7-dihydro-5H-pyrrolo[3,4-b]pyridin-4-yl)benzonitrile], for which the IC50 turned out to be 3.1 nM.

The term IC50 denotes the concentration at which inhibition is half-maximal.
